Measurements published in the supplement of paper PMC10307832.

How the values were obtained:
Test in all cases: relative viability (nuclei count vs DMSO), 5 days (fraction); higher = more cells survive
CUDC-101 + Luminespib = compound: C#Cc1cccc(Nc2ncnc3cc(OC)c(OCCCCCCC(=O)NO)cc23)c1 [CUDC-101] + CCNC(=O)c1noc(-c2cc(C(C)C)c(O)cc2O)c1-c1ccc(CN2CCOCC2)cc1 [Luminespib] (partner 0.01 µM)
Procedure, shortened: (§1)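 Cells from lung cancer lines were seeded into 1536-well plates and, one day later, dosed by pin tool. Treatments were either a single drug or a fixed dose of an anchor drug with five library-drug doses (not always all listed) in √10 steps. After 5 days, nuclei were stained in a one-step fixation (final 0.05% Triton X-100, 1% formaldehyde, 1 ug/ml Hoechst) and counted on 4× images, and relative viability is the treated-to-vehicle nuclei ratio, as the median of duplicate plates.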

Vandetanib + Crizotinib = compound: COc1cc2/c(=N/c3ccc(Br)cc3F)nc[nH]c2cc1OCC1CCN(C)CC1 [Vandetanib] + C[C@@H](Oc1cc(-c2cnn(C3CCNCC3)c2)cnc1N)c1c(Cl)ccc(F)c1Cl [Crizotinib] (partner 1 µM)
Procedure, shortened: as §1

NVP-TAE684 + Alpelisib = compound: COc1cc(N2CCC(N3CCN(C)CC3)CC2)ccc1Nc1ncc(Cl)c(Nc2ccccc2S(=O)(=O)C(C)C)n1 [NVP-TAE684] + Cc1nc(NC(=O)N2CCC[C@H]2C(N)=O)sc1-c1ccnc(C(C)(C)C(F)(F)F)c1 [Alpelisib] (partner 2 µM)
Procedure, shortened: as §1

Vandetanib + Navitoclax = compound: COc1cc2/c(=N/c3ccc(Br)cc3F)nc[nH]c2cc1OCC1CCN(C)CC1 [Vandetanib] + CC1(C)CCC(c2ccc(Cl)cc2)=C(CN2CCN(c3ccc(C(=O)NS(=O)(=O)c4ccc(N[C@H](CCN5CCOCC5)CSc5ccccc5)c(S(=O)(=O)C(F)(F)F)c4)cc3)CC2)C1 [Navitoclax] (partner 0.5 µM)
Procedure, shortened: as §1

| Cell Line | relative viability (CUDC-101 + Luminespib; first compound 0.01 µM) | relative viability (CUDC-101 + Luminespib; first compound 0.03162 µM) | relative viability (CUDC-101 + Luminespib; first compound 0.1 µM) | relative viability (CUDC-101 + Luminespib; first compound 0.3162 µM) | relative viability (CUDC-101 + Luminespib; first compound 1 µM) | relative viability (Vandetanib + Crizotinib; first compound 0.02 µM) | relative viability (Vandetanib + Crizotinib; first compound 0.06325 µM) | relative viability (Vandetanib + Crizotinib; first compound 0.2 µM) | relative viability (Vandetanib + Crizotinib; first compound 0.6325 µM) | relative viability (Vandetanib + Crizotinib; first compound 2 µM) | relative viability (NVP-TAE684 + Alpelisib; first compound 0.2 µM) | relative viability (NVP-TAE684 + Alpelisib; first compound 0.6325 µM) | relative viability (NVP-TAE684 + Alpelisib; first compound 2 µM) | relative viability (Vandetanib + Navitoclax; first compound 0.02 µM) | relative viability (Vandetanib + Navitoclax; first compound 0.06325 µM) | relative viability (Vandetanib + Navitoclax; first compound 0.2 µM) | relative viability (Vandetanib + Navitoclax; first compound 0.6325 µM) | relative viability (Vandetanib + Navitoclax; first compound 2 µM) |
| --- | --- | --- | --- | --- | --- | --- | --- | --- | --- | --- | --- | --- | --- | --- | --- | --- | --- | --- |
| NCI-H1755 | 0.602 | 0.302 | 0.496 | 0.576 | 0.394 | 0.853 | 0.843 | 0.789 | 0.85 | 0.829 | 0.692 | 1 | 0.771 | 1.03 | 0.979 | 0.968 | 0.973 | 0.972 |
| NCI-H838 | 0.302 | 0.248 | 0.228 | 0.251 | 0.218 | 0.819 | 0.846 | 0.898 | 0.819 | 0.724 | 1.06 | 0.97 | 0.537 | 1.13 | 1.13 | 1.15 | 1.12 | 1.07 |
| NCI-H2228 | 0.114 | 0.164 | 0.169 | 0.19 | 0.188 | 0.446 | 0.473 | – | 0.484 | 0.479 | 0.381 | 0.255 | 0.153 | 0.917 | 0.482 | – | 0.938 | 0.695 |
| EKVX | 0.916 | 0.677 | 0.749 | 0.982 | 0.81 | 1.01 | 0.882 | 1.13 | 1.02 | 0.531 | 0.936 | 0.781 | 0.63 | 0.934 | 0.869 | 0.882 | 0.753 | 0.806 |
| HCC-827 | 0.531 | 0.241 | 0.278 | 0.217 | 0.197 | 0.983 | 0.93 | 0.851 | 0.242 | 0.192 | 1.05 | 1.05 | 0.822 | 1.04 | 0.975 | 0.993 | 0.464 | 0.153 |
| NCI-H2170 | 0.626 | 0.286 | 0.719 | 0.471 | 0.465 | 1.22 | 1.26 | 1.11 | 1.18 | 1.1 | 0.702 | 0.789 | 0.672 | 0.621 | 0.618 | 0.565 | 0.567 | 0.502 |
| NCI-H2009 | 1.07 | 0.904 | 1.06 | 1.02 | 0.928 | 1.06 | 0.964 | 1.08 | 1.02 | 1.03 | 1.11 | 1.14 | 0.927 | 1.12 | 1.15 | 1.24 | 1.19 | 1.11 |
| NCI-H1437 | 1.27 | 1.06 | 1.12 | 1.21 | 1.19 | 0.842 | 0.894 | 0.895 | 0.958 | 0.954 | 1 | 1 | 0.516 | 1.03 | 1.06 | 1.16 | 1.08 | 1.08 |
| NCI-H2087 | 0.174 | 0.186 | 0.176 | 0.177 | 0.198 | 0.785 | 0.949 | 0.835 | 0.88 | 0.904 | 1.07 | 1.04 | 1.01 | 1.02 | 0.832 | 0.948 | 1.16 | 1.08 |
| PC-14 | 0.133 | 0.208 | 0.16 | 0.115 | 0.114 | 0.94 | 0.853 | 0.897 | 0.386 | 0.231 | 0.728 | 1.05 | 0.874 | 1.02 | 0.953 | 1.07 | 0.504 | 0.307 |
| H3255 | 0.845 | 0.648 | – | 0.541 | 0.439 | 0.882 | 0.847 | 0.739 | 0.519 | 0.208 | 0.716 | 0.608 | 0.491 | 0.5 | 0.421 | 0.332 | 0.161 | 0.108 |
| NCI-H460 | 0.0424 | 0.0301 | 0.0366 | 0.0315 | 0.0288 | 0.902 | 0.786 | 0.0179 | 0.972 | 0.804 | 0.607 | 0.412 | 0.113 | 1.13 | 0.999 | 0.0215 | 1.25 | 1.09 |
| HOP-62 | 0.931 | 0.875 | 0.902 | 0.859 | 0.794 | 1.03 | 0.919 | 0.695 | 1.01 | 1.11 | 1.16 | 0.891 | 0.946 | 0.975 | 1.07 | 0.999 | 1.18 | 1.01 |
| NCI-H2085 | 0.479 | 0.446 | 0.437 | 0.45 | 0.385 | 0.807 | 0.841 | 0.932 | 0.937 | 0.875 | 0.934 | 0.897 | 0.712 | 1.23 | 1.07 | 1.12 | 1.03 | 1 |
| COR-L23 | 0.801 | 0.734 | 0.658 | 0.632 | 0.353 | 0.698 | 0.623 | 0.114 | 0.671 | 0.729 | 0.762 | 0.517 | 0.237 | 0.95 | 0.915 | 0.114 | 1.07 | 0.954 |
| HARA | 0.465 | 0.682 | 0.616 | 0.311 | 0.185 | 1.04 | 1.02 | 1.01 | 0.998 | 0.956 | 0.884 | 0.719 | 0.346 | 1.1 | 0.996 | 1.13 | 1.07 | 1.15 |
| 201T | 1.03 | 0.988 | 0.981 | 1.08 | 1.02 | 1 | 1.03 | 0.978 | 0.95 | 0.969 | 0.976 | 1.05 | 0.839 | 1.1 | 1.19 | 1.2 | 1.15 | 1.19 |
| EMC-BAC-2 | 1.29 | 1.08 | 1.2 | 1.22 | 0.973 | 0.764 | 0.778 | 0.432 | 0.765 | 0.708 | 0.704 | 0.759 | 0.436 | 1.11 | 1.11 | 0.76 | 1.12 | 1.06 |
| NCI-H441 | 0.359 | 0.381 | 0.304 | 0.414 | 0.371 | 0.926 | 0.751 | 0.687 | 0.88 | 0.856 | 0.835 | 0.965 | 0.503 | 0.627 | 0.529 | 0.754 | 0.368 | 0.578 |
| NCI-H1944 | 0.757 | 0.545 | 0.732 | 0.565 | 0.53 | 1.01 | 1.1 | 1.15 | 1.07 | 0.942 | 0.786 | 0.797 | 0.691 | 1 | 1.05 | 1.05 | 1.01 | 0.86 |
| NCI-H727 | 0.399 | 0.392 | 0.558 | 0.342 | 0.396 | 0.821 | 0.885 | 0.786 | 0.65 | 0.687 | 0.591 | 0.409 | 0.275 | 0.45 | 0.468 | 0.528 | 0.449 | 0.287 |
| NCI-H1993 | 0.933 | 0.772 | 0.72 | 0.772 | 0.535 | 0.924 | 0.77 | 0.861 | 0.77 | 0.72 | – | 0.7 | 0.696 | 0.932 | 0.942 | 0.853 | 0.838 | 0.789 |
| NCI-H3122 | 0.118 | 0.0939 | 0.0988 | 0.112 | 0.0815 | 0.291 | 0.257 | 0.266 | 0.261 | 0.249 | 0.28 | 0.197 | 0.189 | 0.99 | 0.998 | 1.03 | 0.994 | 1.03 |
| NCI-H1651 | 0.787 | 0.77 | 0.811 | 0.991 | 0.839 | 0.837 | 0.851 | 0.831 | 0.898 | 0.781 | – | 1.02 | 0.994 | 0.927 | 1.11 | 1.08 | 1.07 | 0.928 |
| NCI-H1355 | 0.729 | 0.741 | 0.694 | 0.676 | 0.586 | 1.03 | 0.976 | 0.637 | 0.996 | 1.04 | 0.721 | 0.928 | 0.473 | 0.931 | 0.809 | 0.577 | 1.01 | 1.03 |
| NCI-H596 | 1.12 | 0.936 | 0.923 | 0.927 | 0.972 | 0.907 | 0.872 | 1.2 | 1.12 | 0.81 | 0.526 | 0.517 | 0.375 | 0.942 | 0.976 | 1.05 | 0.94 | 0.795 |
| NCI-H23 | 0.197 | 0.204 | 0.209 | 0.207 | 0.197 | 0.64 | 0.573 | 0.514 | 0.527 | 0.451 | 0.856 | 0.62 | 0.484 | 0.782 | 0.8 | 0.769 | 0.914 | 0.688 |
| NCI-H2126 | 1.03 | 0.871 | 0.938 | 0.891 | 0.793 | 0.983 | 0.964 | 0.99 | 0.97 | 0.959 | 0.756 | 0.811 | 0.65 | 0.865 | 0.859 | 0.84 | 0.866 | 0.727 |
| LU99A | 0.224 | 0.247 | 0.245 | 0.261 | 0.248 | 0.546 | 0.498 | 0.63 | 0.522 | 0.577 | 0.594 | 0.524 | 0.328 | 0.794 | 0.73 | 0.734 | 0.679 | 0.761 |
| LXF-289 | 0.651 | 0.632 | 0.741 | 0.752 | 0.449 | 0.801 | 0.789 | 0.827 | 0.828 | 0.792 | 1.08 | 1.04 | – | 0.94 | 0.921 | 1 | 0.937 | 0.934 |
